Results: a melting point compilation (Tetko et al.; mined from patent text by program, amines drawn as free bases though some values may be those of a salt)

CC(=O)c1c(C)[nH]c(-c2cccc(C)c2)c1N showed a melting point of 195 to 197 °C.
Molecule Cc1cc(-c2ccccc2)nn2cnnc12 has a melting point of 150 to 151 °C.
For COC(=O)C(=O)Nc1ccc(C(CC2CCCC2)C(=O)Nc2nccs2)cc1 (stereo not given), the melting point was 95 to 98 °C.
Work on NS(=O)(=O)c1cccc(-c2cccc(-c3nc(-c4ccc(C(F)(F)F)c(F)c4)cc(C(F)(F)F)n3)c2)c1 yielded a melting point of 228 °C.
With CCNCC(=O)N1c2ccccc2NC(=O)c2c1c(C)cn2C the melting point was 175 to 176 °C.
CC(=O)NC[C@H]1CN(c2ccc(N3CCC(Cc4nnc(-c5ccccc5)o4)CC3)c(F)c2)C(=O)O1 showed a melting point of 199 to 200 °C.
With NC(=NO)c1cccc(Oc2ccc3c(c2)S(=O)(=O)N=C2CCCN23)c1 the melting point was 165 to 169 °C.
Molecule Cc1cc(SC(C)C)c(NC(=O)CCCCCCSc2nc3cccc(C(F)(F)F)c3o2)c(SC(C)C)n1 has a melting point of 76 to 78 °C.
For CC(=O)n1cc(C2C(=O)CC(C)(C)CC2=O)c2ccccc21, the melting point was 225 to 227 °C.
CCC1CCC(C2CCC(CC)CC2)CC1 (stereo not given) showed a melting point of -6 °C.
Work on CNC(=S)NS(=O)(=O)c1cc(CCNC(=O)c2cc(Cl)ccc2OC)ccc1-c1cccs1 yielded a melting point of 189 to 191 °C.
Cc1ccc(-c2cccc(/C=C/C(=O)Nc3ccc(CN4CCCC(CO)C4)cc3)c2)cc1 (stereo not given) gave a melting point of 153 to 154 °C.
For CNC(=S)C1(c2ccncc2)CCCS1 (stereo not given), the melting point was 178 °C.
For O=C(O)c1ccc(-c2ccc3cc(OCc4ccccc4)c(C45CC6CC(CC(C6)C4)C5)cc3c2)cc1, the melting point was 305 to 310 °C.
Molecule c1ccc(-n2c(-c3cccnc3)nc3ccccc32)cc1 has a melting point of 110 to 112 °C.
In the case of C1=CCC(OC2=CC=CC2)=C1, the melting point is reported as 74 °C.
With CCN(CC)C(=O)c1nc(C=Cc2ccc(OC)cc2)no1 the melting point was 69 to 70 °C.
Molecule N#CCCCOc1ccc(C(=O)Nc2ccc(-n3nc(-c4cccnc4)cc3C#N)cc2)cn1 has a melting point of 190 to 191 °C.
Molecule CCOC(=O)OC1=C(c2c(C)cc(C)cc2C)C(=O)N(C)C12CCN(OC)CC2 has a melting point of 134 to 136 °C.
For COc1cccc([C@]23CCN(C)C(=O)[C@@H]2CCC2(C3)OCCO2)c1 (relative stereo), the melting point was 180 to 181 °C.
CCOc1cc2cc(CO)cc(-c3ccnc(Cl)c3)c2cc1OCC gave a melting point of 135 to 137 °C.
Work on CN1CC=C(c2c[nH]c3ccc(CCNS(C)(=O)=O)cc23)CC1 yielded a melting point of 170 to 172 °C.
For O=C(Nc1ccc(C(=O)N2Cc3ccccc3Cc3ccccc32)cc1)c1ccc(C(F)(F)F)cc1, the melting point was 205 to 207 °C.
Work on Nc1nc2c(s1)CC(CCN1CC=C(c3ccccc3)CC1)CC2 (stereo not given) yielded a melting point of 177 to 182 °C.
For C=Cc1cc(C)cc(C)c1C1=C(O)C2(CCN(OC)CC2)NC1=O, the melting point was 198 to 200 °C.
CCn1ncc2c(O)c(C(=O)O)c(CCc3ccccc3)nc21 gave a melting point of 160 to 161 °C.
For Oc1ccc(-c2ncc3ncc(-c4ccc(S)cc4)cc3n2)cc1, the melting point was 222 to 223 °C.
For Fc1cccc(-c2ccc(Cl)nn2)c1, the melting point was 133 to 135 °C.
O=C(O)c1ccc2oc([N+](=O)[O-])c(-c3ccccc3)c2c1 gave a melting point of 271 to 273 °C.
For CCCN1CC(c2cccc(F)c2)=C(c2ccc(S(N)(=O)=O)cc2)C1=O, the melting point was 188 to 190 °C.
In the case of COc1cc(C=CC(=O)Nc2c(-c3ccccc3Cl)c3cc(C)c(C)cc3n(C)c2=O)cc(OC)c1OC(C)=O, the melting point is reported as 259 to 260 °C.
For O=C(Cc1cccc(C(F)(F)F)c1)Cn1cncn1, the melting point was 85 to 87 °C.
For CCN(CC)C(=O)C1CCCN(C(=O)CN(C(=O)CNC(=O)Nc2cccc(C)c2)c2ccccc2)C1 (racemic), the melting point was 156 °C.
Molecule N#Cc1nn(-c2ccccc2)c(OC(F)F)c1CO has a melting point of 71 to 72 °C.
With Cn1c(C(F)(F)F)cc(=O)n(-c2cc3c(cc2F)nc(C(F)(F)F)n3Cc2cccc(Cl)c2)c1=O the melting point was 91 to 93 °C.
Work on Fc1ccc(-c2nc(-c3ccc[nH]3)[nH]c2-c2ccc(F)cc2)cc1 yielded a melting point of 276 °C.
In the case of O=C(NCCCn1cncn1)Nc1ccc(Cl)cc1, the melting point is reported as 137 to 139 °C.
COc1ccc(OCCCCBr)c(C2Sc3cc(Cl)ccc3N(C)C2=O)c1 (stereo not given) showed a melting point of 106 to 107 °C.
With O=C(NC(=O)N1C(=O)Cc2ccccc21)C1CCCCC1 the melting point was 144 to 146 °C.
For CCCOC(=O)C1=NN(c2ccccc2)C(C(=O)OCCC)=NN1c1ccccc1, the melting point was 82.5 to 83 °C.
For Cc1ccc(C(SCCN(C)CCCCN=C(NC#N)NCCSCc2csc(NC(=N)N)n2)c2ccccc2)cc1 (stereo not given), the melting point was 134 to 140 °C.
In the case of CC1CCCN1C1CCN(c2ccc(C(=O)NC3CCOCC3)cc2)C1 (stereo not given), the melting point is reported as 180 °C.
With CC(C)(C)c1cc(C(=O)c2cc[nH]n2)cc(C(C)(C)C)c1O the melting point was 216 to 219 °C.
Molecule CCNc1cncc(S(=O)(=O)N(CC)CC)c1 has a melting point of 58 to 60 °C.
Work on CC(Cl)N1C(=O)CCC1=O (stereo not given) yielded a melting point of 83.5 to 84.5 °C.
Molecule CCN1C(=O)CN=C(c2ccccc2F)c2cc(C(C)=O)ccc21 has a melting point of 154 to 156 °C.
Molecule C[C@H](Oc1cc(-c2c3ccccc3c(Br)c3sc4ccccc4c23)ccc1Br)C(=O)O has a melting point of 132 to 134 °C.
CC1(C)C(=O)N(CCCl)C(=O)N1CCCl showed a melting point of 77 to 79 °C.
Nc1nc2cc(Br)ccc2c2c1nc(CNC(=O)C1CC1)n2CC1CCOCC1 showed a melting point of 240 °C.
Cc1c(C(=O)O)cccc1C(=O)c1ccc(Cl)cc1 showed a melting point of 205 °C.
CCC(COC)n1cc(Cl)nc(N2CCc3cc(OC)cc(Cl)c32)c1=O (stereo not given) showed a melting point of 126 to 128 °C.
CN(C(=O)c1cccc(C(=O)O)c1)c1ccc2c(=O)n3c(nc2c1)C(=Cc1ccccc1)CC3 gave a melting point of 302 to 304 °C.
Molecule COC(=O)c1ccc(C(=O)Nc2cc3c4c(c2)CCCC4CCC3)cc1 has a melting point of 217 to 218 °C.
CCN(CC)C(=O)c1c(OC)ccc2cc(Br)ccc12 showed a melting point of 109 to 110 °C.
For Cc1ccc(S(=O)(=O)Nc2ccccc2C(=O)NCCc2ncc[nH]2)cc1, the melting point was 173 to 181 °C.
For CN(C)S(=O)(=O)c1ccc2c(c1)S(=O)(=O)NC(C(F)(F)F)=N2, the melting point was 240 to 242 °C.
CS(=O)(=O)CCCOc1ccc(/C=C/C(=O)O)c(Oc2ncc(C(F)(F)F)cc2Cl)c1 showed a melting point of 202 to 203 °C.
Molecule O=c1c2ccccc2n(-c2cccc([N+](=O)[O-])c2)c2nc3ccccc3n12 has a melting point of 294 °C.
Molecule CC(C)Cc1ccc2ccc(N)nc2n1 has a melting point of 125 to 127 °C.
Molecule CC(=O)CN1CCc2c(c(=O)oc3cc(C)c(N)cc23)C1 has a melting point of 196 to 198 °C.
Work on COc1cc2c(cc1C)OC1(CC2(C)C)CC(C)(C)c2cc(OCC(=O)O)c(C)cc2O1 (stereo not given) yielded a melting point of 195 to 197 °C.
O=[N+]([O-])c1ccc(Oc2ccc3c(c2)OCCC3Cl)cc1 (stereo not given) showed a melting point of 67 to 68 °C.
In the case of CCOC(=O)c1ccc(NC(=O)CCc2ccc(OC)cc2)cc1, the melting point is reported as 134 to 136 °C.
Molecule CCOC(=O)c1ncc2[nH]c3ccc(C(C)OC)cc3c2c1C (stereo not given) has a melting point of 96 to 97 °C.
CCCCCc1c(C(C)C)nc(C(C)C)c(CO)c1-c1cccc(F)c1 showed a melting point of 117 to 118 °C.
For CCN1c2ccc(C#N)cc2N(CCCCS(=O)(=O)O)C1C (stereo not given), the melting point was over 260 °C.
OCc1cc(N2CCCCC2)c(Br)cn1 showed a melting point of 118 to 119 °C.
O=C(NC(=O)c1c(Cl)cccc1Cl)Nc1cc(Cl)c(OC(F)(F)C(F)Cl)cc1Cl (stereo not given) gave a melting point of 198 to 200 °C.
In the case of O=C(NNS(=O)(=O)c1c(Cl)cccc1Cl)c1ccc2oc3ccccc3c2c1, the melting point is reported as 202 to 203 °C.
Work on CC(C)c1ccc(/C=C/C(=O)/C=C/c2ccccc2)cc1 yielded a melting point of 76 to 78 °C.
In the case of Nc1c(C2CNCCO2)oc2ccccc2c1=O (stereo not given), the melting point is reported as 140 to 141 °C.
With CC(C)OC(=O)C=Cc1cc([N+](=O)[O-])ccc1Cl the melting point was 74 to 75 °C.
Cc1cc2nc3ccc(C(N)=O)cn3c(=O)c2s1 gave a melting point of 375 to 377 °C.
Work on CCCCOCCOc1ccc(-c2ccc3c(c2)C=C(C(=O)O)CCN3S(C)(=O)=O)cc1 yielded a melting point of 208 to 210 °C.
N#CCC(=O)Nc1ccc(N)c([N+](=O)[O-])c1 gave a melting point of 218 to 221 °C.
For CN(c1cccc2cc(C3=NCC(CN4CCS(=O)CC4)S3)[nH]c12)S(=O)(=O)c1ccccn1 (stereo not given), the melting point was 193 to 194 °C.
Molecule C#Cc1ccc(CO[C@@H]2COc3nc([N+](=O)[O-])cn3C2)cc1 has a melting point of 162 to 164 °C.
In the case of COc1ccc(Cc2ccc3nc(N)nc(N)c3c2)cc1OC, the melting point is reported as 215 to 217 °C.
Molecule COC(=O)c1cc(C)cnc1C1=NC(C)(C(C)C)C(=O)N1C(=O)c1ccccc1 (stereo not given) has a melting point of 104 to 106 °C.
O=C1c2ccccc2O[C@@H](c2ccccc2)[C@@H]1n1ccnc1 (relative stereo) showed a melting point of 199 to 203 °C.
Work on COc1cc2c(Nc3ccc(Sc4nccn4C)c(Cl)c3)c(C#N)cnc2cc1-c1csc(CN2CCOCC2)c1 yielded a melting point of 238 to 240 °C.
Molecule Cc1c(-n2c(C)ccc2C)cc(CC(C#N)=CNc2ccccc2)cc1-n1c(C)ccc1C has a melting point of 252 °C.
Molecule COc1ccc(/C(=C\C=C\C(=O)NCCCCc2cccnc2)c2cccnc2)cc1 has a melting point of 108 to 110 °C.
With CC1CC(=O)c2cc(Cl)ccc2O1 (stereo not given) the melting point was 100 to 102 °C.
Work on CC(CNC(=O)[C@@H]1CSC(=O)N1)O[N+](=O)[O-] (stereo not given in full) yielded a melting point of 70 to 72 °C.
Work on Clc1ccc(C=Cc2ncon2)cc1 yielded a melting point of 134 °C.
In the case of COc1ccc2c(c1)C(n1cc[nH]c1=S)CCC2 (stereo not given), the melting point is reported as 142 to 143 °C.
O=P1(NCCCl)OCCCN1CCBr (stereo not given) gave a melting point of 50 to 51 °C.
CCCNC(=O)c1cnc2c(c1O)CN(C(=O)OCC)CC2 gave a melting point of 199 to 201 °C.
For NC(=S)N1CCN(c2ccccc2)CC1, the melting point was 178 to 179 °C.
For O=C(Nc1cccc(-c2ccnc3c(C(=O)c4cccs4)cnn23)c1)OCC(Cl)(Cl)Cl, the melting point was 197 to 200 °C.
Work on Cc1cc(C(F)(F)C(F)(F)C(F)(F)C(F)(F)F)ccc1NC(=O)c1cccc(Br)c1C(=O)NC(C)C yielded a melting point of 190 to 191 °C.
For COC(=O)c1cn2c(n1)COc1ccccc1-2, the melting point was 133 to 134 °C.
Molecule CCc1cc(NCc2ccc(-c3ccccc3C#N)cc2)n2ccnc2n1 has a melting point of 99 to 100 °C.
For Cc1cc(C)nc(OC(C)C(=O)O)n1 (stereo not given), the melting point was 117 °C.
Work on CCCCn1nc2c(N)nc3c(c2c1CCS(=O)(=O)CCC)CCCC3 yielded a melting point of 173 to 175 °C.
With CCOC(=O)C=Cc1cc(C=CS(=O)(=O)c2ccccc2)cc(Cc2cccnc2)c1 the melting point was 118 to 120 °C.
With Cc1cc(-c2nc3cc(NC(=O)c4c(C(=O)N5CCC5)cnn4C)ccn3n2)ccn1 the melting point was 210 to 211 °C.
In the case of NCC(O)c1nn(Cc2ccccc2)c2ccccc12 (stereo not given), the melting point is reported as 126 °C.
For CCc1ccc(C2CCC(c3ccc(Oc4ccc([N+](=O)[O-])cc4)cc3)(c3ccc(Oc4ccc([N+](=O)[O-])cc4)cc3)CC2)cc1, the melting point was 204 to 205 °C.
